In patent US10189803B2, “Synthesis of therapeutic and diagnostic drugs centered on regioselective and stereoselective ring opening of aziridinium ions” (ILLINOIS INSTITUTE OF TECHNOLOGY, priority 2008, dated 2019):
Entries after “also recorded” stand apart in the source; their conditions may differ.

Key:
[1] = system: Hela cells; experiment: Antiproliferative activity, MTS assay, HeLa cells; type: cell-based, Human; conditions: for IC50: Homo sapiens, 72 h incubation, MTS
Description: (§1) Cell culture Human cervix HeLa cell line was obtained from ATCC (Rockville, Md.) and cultured in minimum essential medium (MEM) with L-glutamine (2 mM), Earle's BSS and sodium bicarbonate (1.5 g/L), supplemented with 10% fetal bovine serum (FBS), non-essential amino acids (0.1 mM), sodium pyruvate (1 mM) and antibiotic/antimycotic solution in a humidified atmosphere with 5% CO2 at 37° C. […] Lung fibroblast MRC-5 cell line was obtained from ATCC (Rockville, Md.) and cultured in ATCC formulated EMEM, supplemented with 10% fetal bovine serum (FBS) in a humidified atmosphere with 5% CO2 at 37° C.
(§2) Antiproliferative Activity. Cells were seeded onto 96-well plate at density of 2,000 cells for Hela cells or 5,000 cells for HT29 cells or 5,000 cells for MRC-5 per well in 0.1 mL complete medium and allowed to attach for 24 h. Varying concentrations of the test compounds in the final volume of 0.1 mL complete medium were then added in at least five series dilutions and incubated for 72 h. To measure cell proliferation, the Cell Titer 96 aqueous nonreactive cell proliferation assay (Promega Life Sciences, Madison, Wis.) was used according to the manufacturer's instructions. Briefly, MTS (2 mg/mL) and PMS (0.92 mg/ml) were mixed in a ratio of 20:1. An aliquot (20 μL) of the MTS/PMS mixture was added into each well, and the plate was incubated for 3 h at 37° C. Optical absorbance at 490 nm was then recorded with an enzyme-linked immunosorbent assay (ELISA) microtiter plate reader (Biotek). Each experiment was done at least in triplicate. Antiproliferative activity of the test compounds was expressed as the fraction of optical densities of treated the cells relative to the untreated solvent controls.^31 The data were plotted in GraphPad Prizm 3.0. Nonlinear regression analysis was used to determine IC50 values.
(§3) Cell culture. Human cervix HeLa cell line was obtained from ATCC (Rockville, Md.) and cultured in minimum essential medium (MEM) with L-glutamine (2 mM), Earle's BSS and sodium bicarbonate (1.5 g/L), supplemented with 10% fetal bovine serum (FBS), non-essential amino acids (0.1 mM), sodium pyruvate (1 mM) and antibiotic/antimycotic solution in a humidified atmosphere with 5% CO2 at 37° C.
as §2, with “activity.” for “Activity.”, “cells” for “cells or 5,000 cells for MRC-5”, “controls.” for “controls.^31”

[2] = system: HT29 cells; experiment: Antiproliferative activity, MTS assay, HT29 cells; type: cell-based, Human
Description: as §1, §2, §3
as §2, with “activity.” for “Activity.”, “cells” for “cells or 5,000 cells for MRC-5”, “controls.” for “controls.^31”

[3] = system: Hela cells; experiment: Iron saturation experiment, Hela cell growth (MTS); type: cell-based, Human
Description: Cytotoxicity of the new chelators was measured in the HeLa and HT29 cancer cells and compared to that of the clinically used iron chelators DFO and DTPA. […] The preliminary cell culture experiments were performed to see ifNETA is an effective cytotoxic agent. […] In order to investigate the effect of the chelators on the cellular growth, the Hela cancer cells saturated with Fe(III)-citrate (50 μM) were incubated with each of the chelators (50 μM).
Iron Saturation Experiment Hela Cells were inoculated onto 96-well plates at density of 2,000 per well in 0.1 mL complete medium and incubated for 24 h. […] Control samples containing no ferric citriate were also tested. […] After the incubation, cells proliferation rates were evaluated by MTS assay.

[4] = In vitro serum stability of radiolabeled C-NE3TA complexes in human serum (SE-HPLC); type: in vitro ADME
Description: C-NE3TA was radiolabeled with ^90Y, ^177Lu, ^203Pb, ^205/6Bi, or ^153Gd as previously described (Chong, H. S.; Milenic, D. E.; Garmestani, K.; Brady, E. D.; Arora, H.; Pfiester, C.; Brechbiel, M. W., Nucl. Med. Biol. 2006, 33, 459-67; Chong H S, Garmestani K, Bryant Jr., L H Milenic D E, Overstreet T, Birch N, Le N, Brady E D, Brechbiel M W. J. Med. Chem. 2006, 49, 2055-2062). In vitro serum stability of the radiolabeled complexes purified via ion-exchange chromatography was performed to determine if C-NE3TA labeled with the radioisotopes remained stable without transchelation or loss of their respective radionuclide in human serum. This was assessed by measuring the transfer of radionuclide from the complex to serum proteins over the course of 11 days.
In vitro stability of the radiolabeled metal complexes. The stability of the purified radiolabeled complexes was evaluated in human serum (Gemini Bioproducts, Woodland, Calif.) for up to 11 days. The serum stability of the radiolabeled complexes was assessed by measuring the transfer of the radionuclide from each complex to serum proteins using SE-HPLC methods. Radiolabeled complexes were diluted to an appropriate volume that allowed for preparation of multiple samples containing 5-10 μCi and were filter-sterilized using a Millex-GV 0.22 μm filter. This stock solution was then mixed with 1400 μL of sterile normal human serum. Aliquots (200 μL) were drawn and separated into individual tubes for subsequent analysis using aseptic technique. The samples were incubated at 37° C., and at designated intervals, subjected to analysis by SE-HPLC. Samples were loaded onto the HPLC and eluted with PBS, pH 7.4 isocratically at 1 mL/min. […] Radioactivity associated with a transfer to serum proteins generally appeared at ˜6 min.

[5] = In vitro serum stability of 205/6Bi-DEPA in human serum (SE-HPLC); type: in vitro ADME; parameters: Radiolabled Complex, in vitro serum stability (Table 1): unit not given here; conditions: for Radiolabled Complex, in vitro serum stability (Table 1): 37° C.
Description: The new ligand DEPA was radiolabeled with ^177Lu and ^205/6Bi (a surrogate of ^212Bi and ^213Bi) and the corresponding radiolabeled complexes were evaluated for in vitro serum stability as described previously. For comparison, DOTA was also radiolabeled with ^177Lu. DEPA and DOTA (0.25 M NH4OAc buffer, pH 4.0) was radiolabeled with ^177Lu at 45° C. for 0.5 h to afford ^177Lu-DEPA (Rf=0.6) and ^177Lu-DOTA (Rf=0.4) in the respective radiochemical yield of 90% and 95% as determined by radio-TLC. DEPA (0.25 M NH4OAc buffer, pH 5.0) was successfully radiolabeled with ^205/6Bi at room temperature for 1 h to afford ^205/6Bi-DEPA in 96% yield (radio-TLC). ^177Lu-DOTA, 177Lu-DEPA, and ^205/6Bi-DEPA formed were purified from unbound ^205/6Bi by ion-exchange chromatography using a Chelex-100 column (1 mL volume bed, 100-200 mesh, Na^+ form, Bio-Rad, Richmond, Calif.) eluted with PBS (pH 7.4). In vitro serum stability of the purified radiolabeled complexes was performed to determine if DEPA or DOTA radiolabeled with ^177Lu or ^205/6Bi remained stable without loss of the radionuclide in human serum. This was assessed by measuring the transfer of radionuclide from the complex to serum proteins. […] However, ˜10% of the radioactivity was released from ^177Lu-DOTA over 4 days.
In vitro serum stability of the radiolabeled metal complexes. An aliquot of 3.7 MBq of the purified ^177Lu-labeled ligands was added to 0.5 mL of mouse serum (Sigma, St. Louis, Mo.) and 0.1% NaN3. The resulting mixture was incubated at 37° C. for 96 h. Aliquots of 2 μL of the resulting mixture were analyzed by radio-TLC and HPLC at different time points, 0, 0.25, 0.5, 1, 2, 4, 6, 24, 48, and 96 h of incubation. The stability of purified ^205/6Bi-DEPA was evaluated in human serum (Gemini Bioproducts, Woodland, Calif.) for 14 days by measuring the transfer of the radionuclide from the complex to serum proteins as monitored by SE-HPLC. Radiolabeled complexes were diluted to an appropriate volume that allowed for preparation of multiple samples containing 5-10 μCi and filter-sterilized using a Millex-GV 0.22 μm filter. 140 μL of this stock solution was then mixed with 1400 μL of sterile normal human serum or saline. Aliquots (200 μL) were drawn and separated into individual tubes for subsequent analysis using aseptic technique. The samples were incubated at 37° C., and at designated intervals, subjected to analysis by SE-HPLC. Samples were loaded onto the HPLC and eluted with PBS, pH 7.4 isocratically at 1 mL/min. […] Radioactivity associated with a transfer to serum proteins generally appeared between ˜4.5-8 min.

[6] = Biodistribution of 205/6Bi-DEPA in normal athymic mice; type: in vivo
Description: Based on the promising data obtained from the AAIII based spectroscopic complexation kinetics and serum stability experiments, the stability of ^205/6Bi-DEPA was further evaluated by performing a biodistribution study in normal athymic mice as described previously. Blood levels and organ uptake of the radiolabeled complexes in mice were measured at five time points, 0.5, 1, 4, 8, and 24 h post-injection of ^205/6Bi-DEPA. […] Radioactivity that was detected in the blood and the organs was less than 2.44% ID/g at all points. At 24 h post injection, the % ID/g in the kidneys and spleen was 0.36±0.03% and 0.39±0.07%, respectively, which was slightly higher than that observed in other organs.

[7] = Homo sapiens, HT-29, 72 h incubation

## CC(CCC(=O)Nc1ccc(CC(CN2CCN(CC(=O)O)CCN(CC(=O)O)CC2)NCC(=O)O)cc1)C1CCC2C3CCC4CC(O)CCC4(C)C3CC(O)C12C (stereo not drawn) [DCA-NE3TA, [4-Carboxymethyl-7-(2-(carboxymethyl-amino)-3-{4-[4-(3,12-dihydroxy-10,13-dimethylhexadecahydro-cyclopenta[a]phenanthren-17-yl)-pentanoylamino]-phenyl}-propyl)-[1,4,7]triazonan-1-yl]-acetic acid]
[1]
  sensitivity of HeLa cells relative to DTPA: approximately 40 fold
  IC50: 6.3 ± 0.1 µM
[2]; [7]
  IC50: 7.5 ± 0.3 µM

## O=C(O)CN1CCN(CCN(CC(=O)O)Cc2ccc([N+](=O)[O-])cc2)CCN(CC(=O)O)CC1 [N-NE3TA]
[1]
  IC50: 8.4 ± 0.4 µM
[2]; [7]
  IC50: 6.8 ± 0.4 µM

## O=C(O)CNCCN1CCN(CC(=O)O)CCN(CC(=O)O)CC1 [NE3TA, (4-Carboxymethyl-7-[2-(carboxymethyl-amino)-ethyl]-[1,4,7]trizonan-1-yl)-acetic acid]
[1]
  IC50: 5.7 ± 0.3 µM
[2]; [7]
  IC50: 4.7 ± 0.3 µM

## O=C(O)CN1CCN(CCN(CC(=O)O)CC(=O)O)CCN(CC(=O)O)CC1 [NETA]
[2]; 72 h incubation
  IC50: 7.3 ± 1.5 µM
[3]; 50 μM, HeLa
  anti-proliferative activity compared to DFO: three-fold increased anti-proliferative activity compared to DFO
[3]; chelator 50 μM, Fe(III)-citrate 50 μM
  effect on Hela cells saturated with Fe(III)-citrate (in words): almost no anti-proliferative activity
[3]; free ligand 50 μM, no ferric citrate
  HeLa cancer cells died: ~80%

## O=C(O)CNC(Cc1ccc([N+](=O)[O-])cc1)CN1CCN(CC(=O)O)CCN(CC(=O)O)CC1.[203Pb] (stereo not drawn) [^203Pb-C-NE3TA]
[4]; 37° C., up to 11 days
  stability in human serum (in words): no measurable loss of radioactivity
[4]; in 1 day
  radionuclide dissociated from the complex: ~40%

## O=C([O-])CN1CCN(CCN(CC(=O)[O-])CC(=O)[O-])CCN(CC(=O)[O-])CCN(CC(=O)[O-])CC1.[Bi+3] [^205/6Bi-DEPA]
[5]; 0 h
  Radiolabled Complex, in vitro serum stability (Table 1): 100
[5]; 0.5 h
  Radiolabled Complex, in vitro serum stability (Table 1): 100
[5]; 1 h
  Radiolabled Complex, in vitro serum stability (Table 1): 100
[5]; 2 h
  Radiolabled Complex, in vitro serum stability (Table 1): 100
[5]; 4 h
  Radiolabled Complex, in vitro serum stability (Table 1): 100
[5]; 6 h
  Radiolabled Complex, in vitro serum stability (Table 1): 100
[5]; 24 h
  Radiolabled Complex, in vitro serum stability (Table 1): 100
[5]; 48 h
  Radiolabled Complex, in vitro serum stability (Table 1): 100
[5]; 96 h
  Radiolabled Complex, in vitro serum stability (Table 1): 100
[5]; 120 h
  Radiolabled Complex, in vitro serum stability (Table 1): 100
[5]; 192 h
  Radiolabled Complex, in vitro serum stability (Table 1): 100
[5]; 288 h
  Radiolabled Complex, in vitro serum stability (Table 1): 100
[5]; 336 h
  Radiolabled Complex, in vitro serum stability (Table 1): 100
[5]; 14 days
  serum stability of 205/6Bi complex (in words): no radioactivity was released over 14 days; also recorded: very stable in human serum for 2 weeks
[6]; 0.5 h
  bone accumulation of the radioactivity: 2.02±0.96 % ID/gm
[6]; 1 h
  bone accumulation of the radioactivity: 0.38±0.09 % ID/gm
[6]; 24 h post injection
  % ID/g in the kidneys: 0.36±0.03 % ID/g
  % ID/g in the spleen: 0.39±0.07 % ID/g
[6]; all time points, 0.5-24 h post-injection
  Radioactivity detected in the blood and the organs: less than 2.44 % ID/g
[6]; normal athymic mice
  in vivo stability and clearance (in words): essentially inert in vivo and rapidly cleared from the body
